Data on 17 targets can be found in the supplement of paper PMC6411743.

As a reminder, the pEC50 is the EC50 on a negative log10 scale, so that one unit is a factor of ten.

Compound in one test: Nc1ncnc2c1ncn2[C@@H]1O[C@H](COP(=O)(O)OP(=O)(O)OP(=O)(O)O)[C@@H](O)[C@H]1O [adenosine triphosphate]
The test is described as follows: pEC50 of ATP-induced change in protein thermal stability (2D-TPP). In outline:
(§1)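 Each of three independent experiments used Jurkat crude lysate given five concentrations including vehicle (10 min, room temperature), followed by 3 min at one of 12 temperatures from 42 to 63.9 °C and NP40 with benzonase (60 min, 4 °C). TMT LC-MS/MS quantified soluble protein after ultracentrifugation, expressed as fold changes against vehicle at each temperature with median normalisation. For pEC50, dose-response curves were fitted per replicate over adjacent temperature pairs, and hits were called through permutation-based false discovery rate control.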

Compound in another test: Nc1nc2c(ncn2[C@@H]2O[C@H](COP(=O)(O)OP(=O)(O)OP(=O)(O)O)[C@@H](O)[C@H]2O)c(=O)[nH]1 [guanosine triphosphate]
Briefly: pEC50 of GTP-induced change in protein thermal stability (2D-TPP). The method in brief:
as §1
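Throughout, for pEC50 of ATP-induced change in protein thermal stability (2D-TPP): lysate dosed with Na-ATP at 0 0.005 0.05 0.5 and 2 mM.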

Chain of UniProt P61224 (P61224 whole entry): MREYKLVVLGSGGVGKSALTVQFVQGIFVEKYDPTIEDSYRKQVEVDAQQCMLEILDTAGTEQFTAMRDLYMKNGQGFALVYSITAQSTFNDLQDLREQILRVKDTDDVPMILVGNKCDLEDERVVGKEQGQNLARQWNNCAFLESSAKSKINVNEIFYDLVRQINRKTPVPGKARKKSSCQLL
Chain of UniProt P62820 (P62820 whole entry): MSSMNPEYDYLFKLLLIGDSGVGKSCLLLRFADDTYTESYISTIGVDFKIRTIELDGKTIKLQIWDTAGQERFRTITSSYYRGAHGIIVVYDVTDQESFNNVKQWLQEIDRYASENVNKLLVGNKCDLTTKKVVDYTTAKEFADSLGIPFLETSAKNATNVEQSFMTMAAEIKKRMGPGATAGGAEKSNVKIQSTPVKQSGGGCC
Chain of UniProt Q16512 (Q16512 whole entry, looked up): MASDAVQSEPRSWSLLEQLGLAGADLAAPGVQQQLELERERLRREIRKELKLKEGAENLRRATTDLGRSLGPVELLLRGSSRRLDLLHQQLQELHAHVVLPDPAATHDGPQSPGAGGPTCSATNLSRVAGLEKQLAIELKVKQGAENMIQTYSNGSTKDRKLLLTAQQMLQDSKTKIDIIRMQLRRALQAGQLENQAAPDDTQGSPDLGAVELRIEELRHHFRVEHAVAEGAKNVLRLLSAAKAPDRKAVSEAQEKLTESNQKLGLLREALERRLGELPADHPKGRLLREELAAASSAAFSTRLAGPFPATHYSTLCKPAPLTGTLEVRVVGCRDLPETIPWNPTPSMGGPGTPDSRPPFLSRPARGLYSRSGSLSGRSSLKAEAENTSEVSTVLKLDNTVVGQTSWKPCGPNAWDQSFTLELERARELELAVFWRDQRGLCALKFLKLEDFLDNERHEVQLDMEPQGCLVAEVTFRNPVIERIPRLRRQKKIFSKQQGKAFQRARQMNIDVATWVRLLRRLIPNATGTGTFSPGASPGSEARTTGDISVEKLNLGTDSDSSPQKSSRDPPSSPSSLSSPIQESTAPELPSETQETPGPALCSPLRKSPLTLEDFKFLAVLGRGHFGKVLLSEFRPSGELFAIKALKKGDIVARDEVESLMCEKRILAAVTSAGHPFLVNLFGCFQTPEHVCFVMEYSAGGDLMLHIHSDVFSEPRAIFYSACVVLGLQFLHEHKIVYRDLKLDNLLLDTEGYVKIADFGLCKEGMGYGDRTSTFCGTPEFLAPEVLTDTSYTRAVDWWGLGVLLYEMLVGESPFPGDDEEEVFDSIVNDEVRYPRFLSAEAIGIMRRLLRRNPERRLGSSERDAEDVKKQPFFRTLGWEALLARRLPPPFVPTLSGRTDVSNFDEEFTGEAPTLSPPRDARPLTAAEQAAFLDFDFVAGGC
Chain of UniProt P62070 (P62070 whole entry): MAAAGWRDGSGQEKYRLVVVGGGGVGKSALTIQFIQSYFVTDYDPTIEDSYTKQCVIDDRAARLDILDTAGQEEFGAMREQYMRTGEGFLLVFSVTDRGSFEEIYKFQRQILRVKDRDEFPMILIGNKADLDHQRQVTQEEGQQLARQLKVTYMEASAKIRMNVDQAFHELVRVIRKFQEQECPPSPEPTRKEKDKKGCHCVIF
Chain of UniProt P61086 (P61086 whole entry): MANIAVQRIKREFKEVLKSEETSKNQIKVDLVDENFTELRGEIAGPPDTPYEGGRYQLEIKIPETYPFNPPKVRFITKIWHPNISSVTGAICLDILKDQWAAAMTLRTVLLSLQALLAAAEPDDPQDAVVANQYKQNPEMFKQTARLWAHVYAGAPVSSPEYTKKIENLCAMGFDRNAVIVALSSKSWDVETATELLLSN
Chain of UniProt P62333 (P62333 whole entry): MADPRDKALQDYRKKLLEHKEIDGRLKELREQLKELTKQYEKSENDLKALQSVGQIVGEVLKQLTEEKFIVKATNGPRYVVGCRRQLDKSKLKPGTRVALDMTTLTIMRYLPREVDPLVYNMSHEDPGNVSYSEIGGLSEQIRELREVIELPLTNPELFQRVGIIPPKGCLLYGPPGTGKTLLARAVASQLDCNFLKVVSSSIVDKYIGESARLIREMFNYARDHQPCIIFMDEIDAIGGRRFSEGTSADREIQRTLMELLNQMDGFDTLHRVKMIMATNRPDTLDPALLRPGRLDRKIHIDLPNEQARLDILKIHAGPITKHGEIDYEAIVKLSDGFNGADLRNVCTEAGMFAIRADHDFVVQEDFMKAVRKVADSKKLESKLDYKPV
Chain of UniProt P61106 (P61106 whole entry, looked up): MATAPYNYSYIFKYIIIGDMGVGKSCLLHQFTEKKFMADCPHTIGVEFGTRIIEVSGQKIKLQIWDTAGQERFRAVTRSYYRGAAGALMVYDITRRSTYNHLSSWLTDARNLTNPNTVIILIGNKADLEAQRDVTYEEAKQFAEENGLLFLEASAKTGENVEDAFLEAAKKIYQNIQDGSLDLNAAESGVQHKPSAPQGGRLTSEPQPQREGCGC
Chain of UniProt Q01130 (Q01130 whole entry): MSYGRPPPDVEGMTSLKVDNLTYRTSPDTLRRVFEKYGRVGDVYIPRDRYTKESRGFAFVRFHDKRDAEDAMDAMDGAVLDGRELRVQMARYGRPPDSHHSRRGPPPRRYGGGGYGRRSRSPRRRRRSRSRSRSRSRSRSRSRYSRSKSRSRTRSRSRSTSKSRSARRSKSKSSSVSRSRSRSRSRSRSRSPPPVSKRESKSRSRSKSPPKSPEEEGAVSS
Chain of UniProt Q712K3 (Q712K3 whole entry): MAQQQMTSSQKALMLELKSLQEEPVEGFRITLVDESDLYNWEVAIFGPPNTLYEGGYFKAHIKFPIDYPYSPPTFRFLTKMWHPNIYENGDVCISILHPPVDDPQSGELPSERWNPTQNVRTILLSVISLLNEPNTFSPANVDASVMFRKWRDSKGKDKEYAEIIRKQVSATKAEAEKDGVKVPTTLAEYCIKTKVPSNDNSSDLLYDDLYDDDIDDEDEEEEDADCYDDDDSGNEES
Chain of UniProt Q9BW83 (Q9BW83 whole entry): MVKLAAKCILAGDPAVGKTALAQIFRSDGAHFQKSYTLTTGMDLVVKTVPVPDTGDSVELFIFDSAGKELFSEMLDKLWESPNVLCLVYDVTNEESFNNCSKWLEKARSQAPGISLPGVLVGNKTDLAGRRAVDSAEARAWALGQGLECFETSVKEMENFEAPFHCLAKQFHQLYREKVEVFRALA
Chain of UniProt P26640 (P26640 whole entry): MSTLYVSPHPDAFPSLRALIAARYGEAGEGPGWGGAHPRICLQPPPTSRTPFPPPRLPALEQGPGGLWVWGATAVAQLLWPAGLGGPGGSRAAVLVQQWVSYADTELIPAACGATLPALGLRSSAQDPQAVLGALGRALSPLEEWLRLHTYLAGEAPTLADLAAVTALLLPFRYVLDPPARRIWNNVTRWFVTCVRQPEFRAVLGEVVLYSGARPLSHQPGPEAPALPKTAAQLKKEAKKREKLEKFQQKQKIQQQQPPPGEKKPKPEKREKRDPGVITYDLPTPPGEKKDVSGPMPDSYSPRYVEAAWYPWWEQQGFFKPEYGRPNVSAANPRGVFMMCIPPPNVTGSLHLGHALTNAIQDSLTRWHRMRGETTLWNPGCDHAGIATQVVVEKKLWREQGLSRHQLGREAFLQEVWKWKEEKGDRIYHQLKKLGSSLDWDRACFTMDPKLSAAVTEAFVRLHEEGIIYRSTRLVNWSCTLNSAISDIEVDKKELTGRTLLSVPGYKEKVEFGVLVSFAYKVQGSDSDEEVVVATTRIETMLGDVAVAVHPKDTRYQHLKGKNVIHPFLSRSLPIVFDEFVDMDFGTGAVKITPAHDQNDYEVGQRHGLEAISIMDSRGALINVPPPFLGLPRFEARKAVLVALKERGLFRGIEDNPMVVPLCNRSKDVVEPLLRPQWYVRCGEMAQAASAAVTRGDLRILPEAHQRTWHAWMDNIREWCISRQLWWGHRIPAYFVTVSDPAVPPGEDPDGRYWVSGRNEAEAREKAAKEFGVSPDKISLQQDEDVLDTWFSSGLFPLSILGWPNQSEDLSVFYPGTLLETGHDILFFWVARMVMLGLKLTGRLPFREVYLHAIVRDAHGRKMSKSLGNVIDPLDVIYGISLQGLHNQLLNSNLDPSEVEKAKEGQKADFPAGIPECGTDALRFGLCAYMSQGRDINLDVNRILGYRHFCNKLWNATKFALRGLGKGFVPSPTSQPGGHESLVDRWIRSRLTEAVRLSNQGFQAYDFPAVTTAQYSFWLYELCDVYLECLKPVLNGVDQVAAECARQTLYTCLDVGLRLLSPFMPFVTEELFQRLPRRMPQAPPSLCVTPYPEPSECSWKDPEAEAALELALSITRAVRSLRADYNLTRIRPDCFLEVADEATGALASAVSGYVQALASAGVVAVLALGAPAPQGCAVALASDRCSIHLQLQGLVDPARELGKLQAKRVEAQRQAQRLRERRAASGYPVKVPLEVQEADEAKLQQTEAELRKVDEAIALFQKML
Chain of UniProt O75351 (O75351 whole entry): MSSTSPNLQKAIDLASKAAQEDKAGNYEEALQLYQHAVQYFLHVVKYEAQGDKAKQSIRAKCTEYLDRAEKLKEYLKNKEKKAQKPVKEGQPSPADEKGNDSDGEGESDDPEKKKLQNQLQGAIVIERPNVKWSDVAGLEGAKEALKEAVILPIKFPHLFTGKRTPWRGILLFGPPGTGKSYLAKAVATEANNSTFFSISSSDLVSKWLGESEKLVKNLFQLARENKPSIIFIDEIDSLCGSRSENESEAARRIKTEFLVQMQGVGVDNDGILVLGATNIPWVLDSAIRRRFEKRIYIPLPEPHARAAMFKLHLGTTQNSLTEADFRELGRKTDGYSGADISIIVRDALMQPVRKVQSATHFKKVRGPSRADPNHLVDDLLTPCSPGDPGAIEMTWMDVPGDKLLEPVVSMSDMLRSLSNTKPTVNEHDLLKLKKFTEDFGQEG
Chain of UniProt Q15286 (Q15286 whole entry): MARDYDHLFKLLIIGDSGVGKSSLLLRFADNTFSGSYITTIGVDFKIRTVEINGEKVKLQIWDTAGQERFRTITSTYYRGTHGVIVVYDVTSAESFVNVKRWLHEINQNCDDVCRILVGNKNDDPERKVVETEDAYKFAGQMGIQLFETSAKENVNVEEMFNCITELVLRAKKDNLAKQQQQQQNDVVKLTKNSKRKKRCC

Turning to “UniProt P61086 (effect direction: stabilized)”, the pEC50 turned out to be 4.05 with adenosine triphosphate and 3.76 with guanosine triphosphate.
Take “UniProt P61106 (effect direction: stabilized)”: the results for the pEC50 with adenosine triphosphate and with guanosine triphosphate were 3.66 and 4.33, respectively.
For “UniProt P61160 (effect direction: stabilized)”, the pEC50 in the test with adenosine triphosphate was 4.25; in the test with guanosine triphosphate, 3.99.
For “UniProt P61224 (effect direction: stabilized)” the same measures were 3.9 and 4.25.
For “UniProt P61225 (effect direction: stabilized)” the same measures were 3.48 and 4.05.
For “UniProt P62070 (effect direction: stabilized)” the same measures were 3.42 and 4.08.
For the target “UniProt P62333 (effect direction: stabilized)”, the values for the pEC50 in the test with adenosine triphosphate and with guanosine triphosphate were 4.38 and 3.75, respectively.
As to “UniProt P62820 (effect direction: stabilized)”, the negative logarithm of the EC50 (pEC50) with adenosine triphosphate stood at 3.74; with guanosine triphosphate, 4.31.
Take “UniProt P68363 (effect direction: stabilized)”: the pEC50 with adenosine triphosphate was found to be 2.98; with guanosine triphosphate, 3.88.
For “UniProt Q6XQN6 (effect direction: stabilized)” the same measures were 4.21 and 3.93.
For “UniProt Q9BW83 (effect direction: stabilized)” the same measures were 3.12 and 3.96.
For the target “UniProt Q712K3 (effect direction: stabilized)”, the pEC50 in the test with adenosine triphosphate turned out to be 4.18; with guanosine triphosphate, 3.86.
As for “UniProt Q01130 (effect direction: stabilized)”, the pEC50 stood at 3.23 with adenosine triphosphate and 3.56 in the test with guanosine triphosphate.
The like results for “UniProt Q15286 (effect direction: stabilized)” were, in that order, 3.53 and 4.35.
For “UniProt Q16512 (effect direction: stabilized)” the same measures were 3.69 and 4.22.
The like results for “VARS (effect direction: stabilized) (UniProt P26640)” were, in that order, 3.57 and 3.79.
As for “VPS4B (effect direction: stabilized) (UniProt O75351)”, the pEC50 amounted to 4.33 in the test with adenosine triphosphate and 3.92 in the test with guanosine triphosphate.
